# Values joined by “and” are separate entries in the source; they are usually repeats but may differ in a detail not shown here. Identical values can stand only once. Toxic doses and inconclusive results are not listed.
# Test system: BDF1 mice, P288 leukemia ip, survival T/C
# Assay: NCI In Vivo Anticancer Drug Screen. Data for tumor model P288 Lymphocytic Leukemia (intraperitoneal) in B6D2F1 (BDF1) mice
# Settings: endpoint: survival time, mean or median, higher = longer survival
# Protocol: The antitumor activity of compounds was measured in mice bearing transplantable tumors. Survival or tumor size were measured and the results are expressed as the measurement made in the treated group (T) divided by the measurement made in the vehicle treated control group (C). The tumor model used in this assay is P288 Lymphocytic Leukemia (intraperitoneal) in B6D2F1 (BDF1) mice
# [1] = dose: 0.63 mg/kg/injection, schedule: Q01DX Z (ip), vehicle: carboxymethylcellulose (CMC)
# [2] = dose: 1.25 mg/kg/injection, schedule: Q01DX Z (ip), vehicle: carboxymethylcellulose (CMC)
# [3] = dose: 5.0 mg/kg/injection, schedule: Q01DX Z (ip), vehicle: carboxymethylcellulose (CMC)
# [4] = dose: 8.0 mg/kg/injection, schedule: Q01DX010 (ip), vehicle: saline
# [5] = dose: 10.0 mg/kg/injection, schedule: Q01DX Z (ip), vehicle: carboxymethylcellulose (CMC)
# [6] = dose: 16.0 mg/kg/injection, schedule: Q01DX010 (ip), vehicle: saline
# [7] = dose: 20.0 mg/kg/injection, schedule: Q01DX Z (ip), vehicle: carboxymethylcellulose (CMC)
# [8] = dose: 10.0 mg/kg/injection, schedule: Q01DX010 (ip), vehicle: saline
# [9] = dose: 20.0 mg/kg/injection, schedule: Q01DX010 (ip), vehicle: saline
# [10] = dose: 40.0 mg/kg/injection, schedule: Q01DX010 (ip), vehicle: saline
# [11] = dose: 32.0 mg/kg/injection, schedule: Q01DX010 (ip), vehicle: saline
# [12] = dose: 12.5 mg/kg/injection, schedule: Q01DX Z (ip), vehicle: carboxymethylcellulose (CMC)
# [13] = dose: 25.0 mg/kg/injection, schedule: Q01DX Z (ip), vehicle: carboxymethylcellulose (CMC)
# [14] = dose: 50.0 mg/kg/injection, schedule: Q01DX Z (ip), vehicle: carboxymethylcellulose (CMC)
# [15] = dose: 6.25 mg/kg/injection, schedule: Q01DX Z (ip), vehicle: carboxymethylcellulose (CMC)
# [16] = dose: 37.5 mg/kg/injection, schedule: Q01DX Z (ip), vehicle: carboxymethylcellulose (CMC)
# [17] = dose: 75.0 mg/kg/injection, schedule: Q01DX Z (ip), vehicle: carboxymethylcellulose (CMC)
smiles,measurement,setting,value
CC(CCC(C)OS(C)(=O)=O)OS(C)(=O)=O (centres undefined),T/C,[1],100 % of control
same,T/C,[2],88 % of control
same,T/C,"dose: 2.0 mg/kg/injection, schedule: Q01DX010 (ip), vehicle: saline",90 % of control
same,T/C,"dose: 2.5 mg/kg/injection, schedule: Q01DX Z (ip), vehicle: carboxymethylcellulose (CMC)",105 % of control
same,T/C,"dose: 4.0 mg/kg/injection, schedule: Q01DX010 (ip), vehicle: saline",90 % of control
same,T/C,[3],114 % of control
same,T/C,[4],100 % of control
same,T/C,[5],107 % of control
same,T/C,[6],104 % of control and 105 % of control and 90 % of control
same,T/C,[7],90 % of control
C=C1C[C@H]2[C@@H]3C=C(C)C4=CC(=O)CC[C@]4(C)[C@H]3CC[C@]2(C)[C@@]1(OC(C)=O)C(C)=O,T/C,"dose: 62.5 mg/kg/injection, schedule: Q01DX010 (sc), vehicle: steriod suspending solution",88 % of control
same,T/C,"dose: 125.0 mg/kg/injection, schedule: Q01DX010 (sc), vehicle: steriod suspending solution",94 % of control
C[C@@H]1C[C@@H]([C@H](O)CC2CC(=O)NC(=O)C2)C(=O)[C@@H](C)C1,T/C,[8],94 % of control
same,T/C,"dose: 12.5 mg/kg/injection, schedule: Q01DX Z (ip), vehicle: water",94 % of control
same,T/C,[9],94 % of control
same,T/C,"dose: 25.0 mg/kg/injection, schedule: Q01DX Z (ip), vehicle: water",98 % of control
same,T/C,[10],105 % of control
c1ccc(CNc2ncnc3[nH]ncc23)cc1,T/C,"dose: 1.95 mg/kg/injection, schedule: Q01DX Z (ip), vehicle: carboxymethylcellulose (CMC)",91 % of control
same,T/C,"dose: 3.9 mg/kg/injection, schedule: Q01DX Z (ip), vehicle: carboxymethylcellulose (CMC)",97 % of control
same,T/C,"dose: 7.8 mg/kg/injection, schedule: Q01DX Z (ip), vehicle: carboxymethylcellulose (CMC)",90 % of control
same,T/C,[4],121 % of control and 93 % of control
same,T/C,[6],112 % of control and 114 % of control
same,T/C,[11],118 % of control
CN(Cc1cnc2nc(N)nc(N)c2n1)c1c(Cl)cc(C(=O)NC(CCC(=O)O)C(=O)O)cc1Cl (centres undefined),T/C,[12],232 % of control
same,T/C,[13],300 % of control
same,T/C,[14],320 % of control
same,T/C,"dose: 100.0 mg/kg/injection, schedule: Q01DX Z (ip), vehicle: carboxymethylcellulose (CMC)",288 % of control
O=C(O)CCCc1ccc(N(CCCl)CCCl)cc1,T/C,"dose: 3.1 mg/kg/injection, schedule: Q01DX Z (ip), vehicle: carboxymethylcellulose (CMC)",110 % of control
same,T/C,"dose: 3.13 mg/kg/injection, schedule: Q01DX010 (ip), vehicle: saline",88 % of control
same,T/C,"dose: 6.25 mg/kg/injection, schedule: Q01DX010 (ip), vehicle: saline",100 % of control
same,T/C,[15],90 % of control
same,T/C,"dose: 12.5 mg/kg/injection, schedule: Q01DX010 (ip), vehicle: saline",100 % of control
same,T/C,[12],106 % of control
same,T/C,[13],114 % of control and 88 % of control
O=C(Nc1ccc(C2=NCCN2)cc1)c1cccc(C(=O)Nc2ccc(C3=NCCN3)cc2)c1,T/C,"dose: 2.4 mg/kg/injection, schedule: Q01DX Z (ip), vehicle: carboxymethylcellulose (CMC)",101 % of control
same,T/C,"dose: 4.7 mg/kg/injection, schedule: Q01DX Z (ip), vehicle: carboxymethylcellulose (CMC)",92 % of control
same,T/C,"dose: 9.4 mg/kg/injection, schedule: Q01DX Z (ip), vehicle: carboxymethylcellulose (CMC)",105 % of control
same,T/C,[6],211 % of control and 262 % of control
same,T/C,"dose: 18.8 mg/kg/injection, schedule: Q01DX Z (ip), vehicle: carboxymethylcellulose (CMC)",161 % of control
same,T/C,[11],255 % of control and 375 % of control
same,T/C,[16],230 % of control
same,T/C,"dose: 64.0 mg/kg/injection, schedule: Q01DX010 (ip), vehicle: saline",333 % of control and 375 % of control
same,T/C,[17],112 % of control
same,T/C,"dose: 128.0 mg/kg/injection, schedule: Q01DX010 (ip), vehicle: saline",268 % of control and 333 % of control
COC12C(COC(N)=O)C3=C(C(=O)C(C)=C(N)C3=O)N1CC1C2N1C (centres undefined),T/C,"dose: 0.31 mg/kg/injection, schedule: Q01DX Z (ip), vehicle: carboxymethylcellulose (CMC)",110 % of control
same,T/C,[1],120 % of control
same,T/C,[2],114 % of control
same,T/C,[3],156 % of control
same,T/C,[5],167 % of control
same,T/C,[7],93 % of control
[N-]=[N+]=CC(=O)NCC(=O)NN,T/C,"dose: 125.0 mg/kg/injection, schedule: Q01DX Z (ip), vehicle: other",96 % of control
same,T/C,"dose: 250.0 mg/kg/injection, schedule: Q01DX Z (ip), vehicle: other",98 % of control
same,T/C,"dose: 500.0 mg/kg/injection, schedule: Q01DX Z (ip), vehicle: other",92 % of control
C[C@H](N)C(=O)N[C@@H]1[C@H]2C(=C(O)C[C@@H](O)[C@@H]2O)C(=O)O[C@@H]1C,T/C,"dose: 150.0 mg/kg/injection, schedule: Q01DX010 (ip), vehicle: saline",112 % of control
same,T/C,"dose: 300.0 mg/kg/injection, schedule: Q01DX010 (ip), vehicle: saline",156 % of control
same,T/C,"dose: 600.0 mg/kg/injection, schedule: Q01DX010 (ip), vehicle: saline",212 % of control
O=C1CCC(N2C(=O)c3ccccc3C2=O)C(=O)N1 (centres undefined),T/C,"dose: 18.75 mg/kg/injection, schedule: Q01DX Z (ip), vehicle: carboxymethylcellulose (CMC)",91 % of control
same,T/C,[16],94 % of control
same,T/C,[17],97 % of control
same,T/C,"dose: 150.0 mg/kg/injection, schedule: Q01DX Z (ip), vehicle: carboxymethylcellulose (CMC)",101 % of control and 88 % of control
same,T/C,"dose: 300.0 mg/kg/injection, schedule: Q01DX Z (ip), vehicle: carboxymethylcellulose (CMC)",94 % of control
same,T/C,"dose: 600.0 mg/kg/injection, schedule: Q01DX Z (ip), vehicle: carboxymethylcellulose (CMC)",87 % of control
CN(C)c1ccc(/C=C/c2ccnc3ccccc23)cc1,T/C,"dose: 0.2 mg/kg/injection, schedule: Q01DX Z (ip), vehicle: water",117 % of control
same,T/C,"dose: 0.8 mg/kg/injection, schedule: Q01DX Z (ip), vehicle: water",98 % of control
same,T/C,"dose: 1.6 mg/kg/injection, schedule: Q01DX Z (ip), vehicle: water",92 % of control
same,T/C,"dose: 3.1 mg/kg/injection, schedule: Q01DX Z (ip), vehicle: water",91 % of control
same,T/C,"dose: 5.0 mg/kg/injection, schedule: Q01DX010 (ip), vehicle: saline",88 % of control
same,T/C,[15],108 % of control
same,T/C,"dose: 6.3 mg/kg/injection, schedule: Q01DX Z (ip), vehicle: water",87 % of control
same,T/C,[8],88 % of control and 90 % of control
same,T/C,[12],108 % of control
same,T/C,[9],88 % of control
same,T/C,[13],114 % of control
same,T/C,[10],88 % of control and 90 % of control
same,T/C,[14],111 % of control
CN(C)CC(=O)c1ccc(O)c(O)c1,T/C,"dose: 8.0 mg/kg/injection, schedule: Q01DX Z (ip), vehicle: saline",94 % of control
same,T/C,"dose: 16.0 mg/kg/injection, schedule: Q01DX Z (ip), vehicle: saline",105 % of control
same,T/C,"dose: 500.0 mg/kg/injection, schedule: Q01DX Z (ip), vehicle: saline",152 % of control
same,T/C,"dose: 675.0 mg/kg/injection, schedule: Q01DX010 (ip), vehicle: saline",150 % of control
CCOC(=O)NP(=O)(N1CC1(C)C)N1CC1(C)C (centres undefined),T/C,"dose: 16.0 mg/kg/injection, schedule: Q01DX Z (ip), vehicle: carboxymethylcellulose (CMC)",95 % of control
same,T/C,"dose: 31.0 mg/kg/injection, schedule: Q01DX Z (ip), vehicle: carboxymethylcellulose (CMC)",98 % of control
same,T/C,"dose: 62.5 mg/kg/injection, schedule: Q01DX Z (ip), vehicle: carboxymethylcellulose (CMC)",112 % of control
same,T/C,"dose: 250.0 mg/kg/injection, schedule: Q01DX Z (ip), vehicle: carboxymethylcellulose (CMC)",180 % of control
same,T/C,"dose: 500.0 mg/kg/injection, schedule: Q01DX Z (ip), vehicle: carboxymethylcellulose (CMC)",117 % of control

# — PubChem BioAssay AID216 (DTP/NCI, 2004)
